Measurements reported in US5449676A, “Pyridazines” (priority 1991, dated 1995).
Read-outs that look alike come from different tables or passages of the source.

Legend:
[1] = tested on: acetylcholine-induced bronchospasm; test: protective effect against acetylcholine-induced bronchospasm in conscious guinea pigs; format: in vivo; conditions: oral, 30 minutes after administration, percentage of protected animals; for responders at 10 µmol/kg: 10 μmol/kg
Method: In addition, the bronchospasmolytic effect was tested on the "protective effect against acetylcholine-induced bronchospasm in conscious guinea pigs" model:
Guinea pigs (250-350 g) are exposed in a closed Plexiglass cylinder (volume […] ) to an acetylcholine mist (0.06% in 0.9% sodium chloride solution; Heyer Use 77 ultrasonic atomizer) before administration of the substance and twice at an interval of 20 minutes after administration of the substance. The time from the start of atomization to the onset of marked breathing difficulties (in some cases hypoxic convulsion in the lateral position) is measured and called the latency time. An increase in the latency time after administration of the substance to at least three times the average latency time before administration of the substance is regarded as a protective effect, and the number of protected animals in the group is determined. […]
[…] After 30 minutes, the animals are again exposed to the acetylcholine mist and the latency times are measured. An increase in the latency time to at least three times the length is regarded as a protective effect.

[2] = tested on: histamine-induced bronchospasm; test: histamine-induced bronchospasm in anesthetized guinea pigs; format: in vivo; conditions: for inhibition in vivo at 20 µmol/kg / inhibition in vivo at 60 µmol/kg / inhibition in vivo at 100 µmol/kg / inhibition in vivo at 5 µmol/kg / inhibition in vivo at 10 µmol/kg: Cavia porcellus; for inhibition in vivo at 5 µmol/kg: 5 μmol/kg; for inhibition in vivo at 10 µmol/kg: 10 μmol/kg
Method: One histamine spasm before administration of the substance was compared with several histamine spasms after administration of the substance. The test substances were administered intravenously (i.v.) and/or intrajejunally (i.j.).

tracheal rings = test: bronchospasmolytic effect on the chain of tracheal rings from guinea pigs in vitro; format: cell-based; conditions: for -lg[EC50 ] / EC50: negative logarithm of EC50 mol/l, 50% of maximum achievable relaxation; for [EC50 ] theophylline/[EC50 ] substance: ratio of EC50 values, theophylline vs substance; for EC50: Cavia porcellus, read-out: -lg[EC50 ] (converted)
Method: The bronchospasmolytic effect of the compounds on the chain of tracheal rings from guinea pigs was tested in vitro as follows:
Thus, a complete dose-effect plot for the test substance is obtained over a period of 20 to 30 minutes. The particular relaxation is expressed as a percentage fraction of the maximum relaxation achievable by administration of (-)isoprenaline (10^-6 mol/l).

PDE IV [3] = test: inhibition of PDE IV isolated from human polymorphonuclear neutrophilic cells (PMNs); format: biochemical; conditions: for PDE IV hum. PMNs -lg[IC50 ]: negative logarithm of IC50, cAMP 0.5 μmol/l; for [IC50 ] PDE III/[IC50 ] PDE IV PMNs: selectivity ratio, PDE III hum. platelets vs PDE IV hum. PMNs
From the text: (§1) The specific inhibition of phosphodiesterase IV (PDE IV=high-affinity cAMP-PDE which cannot be inhibited by cGMP, rolipram-sensitive) is regarded as particularly indicative of an expected bronchospasmolytic and/or antiinflammatory effect. The specificity of the inhibition is moreover described by the ratio [IC50 ]PDE-III /[IC50 ]PDE-IV (PDE III=high-affinity cAMP-PDE which can be inhibited by cGMP) [H. Hidaka et al., Adv. Cycl. Nucl. Res. 13, 145 (1984); TiPS 5, 237 (1984); R. Weishaar et al., J. Med. Chem. 28, (1985); S. A. Harrison et al., Molec. Pharmac. 29, 506 (1986); J. Klein-Tebbe et al., Allergologie 12, 12 (1989); C. Schudt et al., Allergologie 12, 12, (1989); C. Schudt et al., Agents and Action 1991 in press; C. D. Nicholson et al., TiPS 12, (1), 19 (1991)].
(§2) For this reason, the PDE inhibition by the compounds according to the invention was determined on a PDE III isolated from human platelets and on PDE IV isolated from human polymorphonuclear neutrophilic cells (PMNs) and from the dog trachea. Phosphodiesterases III and IV are isolated by chromatography as described by Polson et al., Biochem. Pharmacol. 31, 3403-3406 (1982).
(§3) The substances are dissolved and diluted further in DMSO. 2.1 μl samples from a series of solutions diluted up to 100 fold are mixed with 212 μl of reaction mixture. The reaction mixture contains Hepes (100 mmol/l), DTE (5 mmol/l), MgCl2 (5 mmol/l), CaCl2 (10 μmol/l), BSA fraction V 0.5 mg, ml, cAMP 0.5 μmol/l, 2,8-^3 H-cAMP 250,000 cpm/ml (0.3 μCi/ml, S.A. […]), SV (snake venom) 25 μg/212 μl of test mixture.

PDE III = molecular target: T1, PDE III (Homo sapiens, UniProt Q14432); test: inhibition of PDE III isolated from human platelets; format: biochemical; conditions: negative logarithm of IC50, cAMP 0.5 μmol/l; for IC50: read-out: PDE III hum. platelets -lg[IC50 ] (converted)
T1 construct: PDE III isolated from human platelets; from tissue; host or cells: human platelets
From the text: as §1, §2, §3

PDE IV [4] = test: inhibition of PDE IV isolated from dog trachea; format: biochemical; conditions: for PDE IV dog trachea -lg[IC50 ]: negative logarithm of IC50, cAMP 0.5 μmol/l; for [IC50 ] PDE III/[IC50 ] PDE IV dog tr.: selectivity ratio, PDE III hum. platelets vs PDE IV dog trachea
From the text: as §1, §2, §3

[5] = Cavia porcellus, 0.5 h, 100 μmol/kg
[6] = iv, 20 μmol/kg, after 1 h, read-out: % inhibition after 1 h of the histamine-induced decrease in Vmax
[7] = iv, 20 μmol/kg, average 0-1 h after administration, read-out: % inhibition (0-1 h) of the histamine-induced decrease in Vmax
[8] = 1 h, read-out: % inhibition (0-1 h) of the histamine-induced decrease in Vmax
[9] = 1 h, read-out: % inhibition after 1 h of the histamine-induced decrease in Vmax
[10] = iv, 1 h, read-out: % inhibition (0-1 h) of the histamine-induced decrease in Vmax
[11] = iv, 1 h, read-out: % inhibition after 1 h of the histamine-induced decrease in Vmax
[12] = iv, after 1 h, read-out: % inhibition after 1 h of the histamine-induced decrease in Vmax
[13] = iv, average 0-1 h after administration, read-out: % inhibition (0-1 h) of the histamine-induced decrease in Vmax

T1 sequence (Q14432 whole entry): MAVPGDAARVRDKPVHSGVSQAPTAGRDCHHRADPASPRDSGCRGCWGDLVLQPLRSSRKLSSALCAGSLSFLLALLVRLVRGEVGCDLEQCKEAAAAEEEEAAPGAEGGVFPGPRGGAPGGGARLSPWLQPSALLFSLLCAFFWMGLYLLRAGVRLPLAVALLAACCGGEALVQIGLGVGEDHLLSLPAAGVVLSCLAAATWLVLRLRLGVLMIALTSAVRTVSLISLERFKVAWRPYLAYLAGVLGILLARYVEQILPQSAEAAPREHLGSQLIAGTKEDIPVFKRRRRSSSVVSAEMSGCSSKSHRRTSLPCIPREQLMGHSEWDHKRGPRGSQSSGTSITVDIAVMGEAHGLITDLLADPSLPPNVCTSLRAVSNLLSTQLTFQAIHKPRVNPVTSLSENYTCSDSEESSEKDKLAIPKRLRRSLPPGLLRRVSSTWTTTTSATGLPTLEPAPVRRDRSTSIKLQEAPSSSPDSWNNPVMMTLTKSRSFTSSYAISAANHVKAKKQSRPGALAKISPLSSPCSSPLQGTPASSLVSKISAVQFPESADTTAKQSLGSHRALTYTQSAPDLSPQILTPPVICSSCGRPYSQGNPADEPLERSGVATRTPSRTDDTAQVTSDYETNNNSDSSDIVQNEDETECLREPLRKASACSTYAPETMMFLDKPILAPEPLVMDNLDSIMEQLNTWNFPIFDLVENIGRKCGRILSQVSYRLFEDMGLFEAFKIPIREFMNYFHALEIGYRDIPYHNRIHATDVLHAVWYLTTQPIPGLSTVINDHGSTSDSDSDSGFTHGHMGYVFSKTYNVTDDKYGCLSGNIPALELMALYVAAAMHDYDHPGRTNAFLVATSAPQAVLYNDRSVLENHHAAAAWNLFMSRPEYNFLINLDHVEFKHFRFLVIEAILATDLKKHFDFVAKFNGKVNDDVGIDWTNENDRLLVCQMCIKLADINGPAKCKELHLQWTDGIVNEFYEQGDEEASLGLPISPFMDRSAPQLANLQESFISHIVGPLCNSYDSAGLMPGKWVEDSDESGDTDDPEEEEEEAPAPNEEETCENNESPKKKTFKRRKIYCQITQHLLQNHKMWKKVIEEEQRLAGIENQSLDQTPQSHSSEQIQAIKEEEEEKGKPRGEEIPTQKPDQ

Row | Compound | [EC50 ] theophylline/[EC50 ] substance (tracheal rings) | responders at 100 µmol/kg [1, 5] [%] | PDE IV hum. PMNs -lg[IC50 ] (PDE IV [3]) | [IC50 ] PDE III/[IC50 ] PDE IV PMNs (PDE IV [3]) | IC50 (PDE III) [µM] | EC50 (tracheal rings) [µM] | further results
1 | 3-amino-6-(4-difluoromethoxy-3-methoxyphenyl)pyridazine [Serial No. 11] | 20.4 |  |  |  |  |  | % protective effect ([1]; 30 μmol/kg): 35%; % protective effect ([1]; 100 μmol/kg, listed as 4): 35%; % protective effect ([1]; 100 μmol/kg, listed as 6): 85%; % inhibition after 1 h of the histamine-induced decrease in Vmax ([2]; i.v., 20 μmol/kg, after 1 h): is; % inhibition (0-1 h) of the histamine-induced decrease in Vmax ([2]; i.v., 20 μmol/kg, average 0-1 h after administration): 22%; -lg[EC50 ] (tracheal rings): 5.18
2 | Nc1ccc(-c2ccc(OC(F)F)c(OC3CCCC3)c2)n[n+]1[O-] [compound 24] | 65.5 | 60 | 7.24 | 832 | 47.9 | 2.04 | 
3 | COc1ccc(-c2ccc(N)nn2)cc1OC(C)C [Serial No. 3, 3-amino-6-[4-methoxy-3-(1-methylethoxy)phenyl]pyridazine] |  |  |  |  |  |  | PDE IV dog trachea -lg[IC50 ] (PDE IV [4]): 5.30; [IC50 ] PDE III/[IC50 ] PDE IV dog tr. (PDE IV [4]): 43.7; PDE III hum. platelets -lg[IC50 ] (PDE III): 3.66
4 | CC(C)COc1cc(-c2ccc(N)[n+]([O-])n2)ccc1OC(F)F [compound 23] | 44.7 |  | 7.03 | 1350 | 126 | 3.02 | 
5 | CCOc1ccc(-c2ccc(N)[n+]([O-])n2)cc1OC(F)F [compound 21] | 240 |  | 5.19 | 6.9 | 44.7 | 0.562 | 
6 | Nc1ccc(-c2ccc(OC(F)F)c(OCC(F)(F)F)c2)nn1 [compound 16] |  |  | 6.88 | 2515 | 331 |  | 
7 | 3-amino-6-(4-difluoromethoxy-3-methoxyphenyl)pyridazine 2-oxide [Serial No. 20] | 33.2 |  |  |  |  |  | % protective effect ([1]; 100 μmol/kg): 50%; -lg[EC50 ] (tracheal rings): 5.39
8 | Nc1ccc(-c2ccc(OC(F)F)c(OCC(F)(F)F)c2)n[n+]1[O-] [compound 25] | 380 | 70 | 6.42 | 186 | 70.8 | 0.355 | responders at 10 µmol/kg ([1]; Cavia porcellus, 0.5 h): 45%; inhibition in vivo at 20 µmol/kg [2, 6]: 33%; inhibition in vivo at 20 µmol/kg [2, 7]: 34%
9 | COc1ccc(-c2ccc(N)nn2)cc1OC1CCCCC1 [Serial No. 7, 3-amino-6-(3-cyclohexyloxy-4-methoxyphenyl)pyridazine] |  |  |  |  | 60.3 |  | PDE IV dog trachea -lg[IC50 ] (PDE IV [4]): 5.17; [IC50 ] PDE III/[IC50 ] PDE IV dog tr. (PDE IV [4]): 8.9
10 | Nc1ccc(-c2ccc(OC(F)F)c(OC3CCCC3)c2)nn1 [compound 14] | 20.4 |  | 7.15 | 1466 | 53.7 | 6.61 | 
11 | 3-amino-6-(4-difluoromethoxy-3-ethoxyphenyl)pyridazine 2-oxide [Serial No. 19] | 14.5 |  |  |  |  |  | % protective effect ([1]; 100 μmol/kg): 35%; -lg[EC50 ] (tracheal rings): 5.03
12 | CC(C)Oc1cc(-c2ccc(N)nn2)ccc1OC(F)F [compound 15] |  |  | 6.78 | 794 | 107 |  | 
13 | CC(C)Oc1cc(-c2ccc(N)[n+]([O-])n2)ccc1OC(F)F [compound 22] | 44.7 | 60 | 6.26 | 21.9 | 12 | 3.02 | 
14 | Cn1c(=O)c2[nH]cnc2n(C)c1=O [Theophylline, reference compound] |  | 20 | 3.77 |  |  |  | responders at 200 µmol/kg ([1]; Cavia porcellus, 0.5 h, 200 μmol/kg): 40%; responders at 400 µmol/kg ([1]; Cavia porcellus, 0.5 h, 400 μmol/kg): 70%; inhibition in vivo at 20 µmol/kg [2, 8]: 11%; inhibition in vivo at 60 µmol/kg [2, 8]: 37%; inhibition in vivo at 100 µmol/kg [2, 8]: 45%; inhibition in vivo at 20 µmol/kg [2, 9]: 8%; inhibition in vivo at 60 µmol/kg [2, 9]: 42%; inhibition in vivo at 100 µmol/kg [2, 9]: 44%; inhibition in vivo at 20 µmol/kg [2, 10]: 13%; inhibition in vivo at 60 µmol/kg [2, 10]: 25%; inhibition in vivo at 100 µmol/kg [2, 10]: 34%; inhibition in vivo at 20 µmol/kg [2, 11]: 5%; inhibition in vivo at 60 µmol/kg [2, 11]: 12%; inhibition in vivo at 100 µmol/kg [2, 11]: 22%
15 | Nc1ccc(-c2ccc(OC(F)F)c(OCC3CC3)c2)nn1 [compound 18] |  | 75 | 7.47 | 4265 | 145 |  | responders at 10 µmol/kg ([1]; Cavia porcellus, 0.5 h): 75%; inhibition in vivo at 5 µmol/kg [2, 12]: 49%; inhibition in vivo at 5 µmol/kg [2, 13]: 40%; inhibition in vivo at 10 µmol/kg [2, 12]: 38%; inhibition in vivo at 10 µmol/kg [2, 13]: 33%; inhibition in vivo at 20 µmol/kg [2, 6]: 35%; inhibition in vivo at 20 µmol/kg [2, 7]: 31%; inhibition in vivo at 10 µmol/kg ([2]; i.j. admin., after 1 h, read-out: % inhibition after 1 h of the histamine-induced decrease in Vmax): 43%; inhibition in vivo at 10 µmol/kg ([2]; i.j. admin., average 0-1 h after administration, read-out: % inhibition (0-1 h) of the histamine-induced decrease in Vmax): 32%
16 | COc1cc(-c2ccc(N)nn2)ccc1OC(C)C [Serial No. 5, 3-amino-6-[3-methoxy-4-(1-methylethoxy)phenyl]pyridazine] |  | 45 |  |  |  |  | 
17 | Nc1ccc(-c2ccc(OC(F)F)c(OCC3CC3)c2)n[n+]1[O-] [compound 26] | 135 |  | 7.48 | 550 | 18.2 | 1 | responders at 10 µmol/kg ([1]; Cavia porcellus, 0.5 h): 70%; inhibition in vivo at 20 µmol/kg [2, 6]: 12%; inhibition in vivo at 20 µmol/kg [2, 7]: 15%
18 | CC(C)COc1cc(-c2ccc(N)nn2)ccc1OC(F)F [compound 17] |  |  | 6,96 | 1466 | 151 |  | 
